Like-named read-outs stand apart in the source and are kept apart here.
How the values were obtained:
[1] = system: peach trees (Prunus persica L. 'Redhaven' on Lovell rootstock); assay type: in vivo; conditions: for Fruit (1 to 2 cm in diameter) one month after application / Fruit (2 to 4 cm in diameter) two months after application / Flowers without wilted pistils and stamens 24 hr after application: of 100 flowers; for Flowers without wilted pistils and stamens 24 hr after application: spring 2003
Protocol: Materials and methods: Initial work determined general foliar and blossom injury response to increasing rates of eugenol in apple and peach trees. Eugenol was prepared as a suspension in water and applied with a hand-held sprayer (Sure Shot, Milwaukee Sprayer Mfg. Co., Inc., Milwaukee, Wis.) to flowers to the point of drip. Spray was applied to peach trees (Prunus persica L. ‘Redhaven’ on Lovell rootstock) at 60 psi when air temperature was approximately 21° C. with sunny conditions. Naturally-derived eugenol, extracted from cinnamon (Cinnamomum zeylanicum) or clove (Syzgium aromaticum), was obtained from Citrus and Allied (Floral Park, N.Y.). Peach tree flowers were approximately 60% in bloom when eugenol was applied on 14 Apr. 2003. One tree received one application of each concentration of eugenol. One-hundred flowers per tree, uniformly distributed throughout the crown were selected for measurement 24 hr, 1 mo, and 2 mos after application. At 24 hr, flowers with wilted pistils and stamens were considered killed and nonviable. Surviving fruit were counted 1 and 2 mo after application. Peaches were harvested on 7 Aug. 2003 from each treated tree. Total fruit number and weight and size of individual fruit were measured.

[2] = system: apple trees (Malus domestica 'Ace Spur Red Delicious' on M.7 rootstock); assay type: in vivo; conditions: for Flowers without wilted pistils and stamens 24 hr after application / Fruit (1 to 2 cm in diameter) one month after application / Fruit (2 to 4 cm in diameter) two months after application: Apple; for Flowers without wilted pistils and stamens 24 hr after application: of 100 flower clusters, spring 2003; for Fruit (1 to 2 cm in diameter) one month after application / Fruit (2 to 4 cm in diameter) two months after application: same 100 flower clusters, five fruit each
Protocol: Eugenol was applied to apple trees (Malus domestica ‘Ace Spur Red Delicious’ on M.7 rootstock) on 23 Apr. 2003 when “king” blossoms had been fully opened and subtending flowers were just opening. Temperatures were 18° C. under partly sunny conditions. One-hundred five-cluster groups of flowers were evaluated for damage 24 hr after application. Surviving fruit from the original clusters were counted 1 and 2 mo after application. Apples were harvested on 17 Sep. 2003 from each treated tree. Total fruit number and weight and size of individual fruit were measured.

[3] = system: 'Redhaven' on Lovell peach; assay: Peach blossom thinning with different thinning agents, mist blower back pack sprayer, 2004; assay type: in vivo, Prunus persica
Protocol: In 2004, fewer concentrations of eugenol were tested in comparison with other chemical blossom thinners in apple and peach. […] 2004 with a pressurized power mist blower back pack sprayer. Peach trees had been planted in April 1997 with a 3-m spacing between trees. Treatments included eugenol and Matran® each applied at 1, 2, 4, and 8%. […] Each tree was an experimental unit, buffer trees surrounded each treated tree, and there were 5 replications arranged in a completely randomized design.
Response variables included (1) percent flowers wilted 24 hr after application based on a 100 flower (peach) or flower cluster (apple) sample per tree; (2) number apple fruit retained after June drop from the same 100-flower sample per tree; (3) number and weight of fruit per tree at harvest by size category; (4) visual estimation from two people of foliar and shoot damage. Four branches per tree, each with 25 flowers, were measured; two branches opposite each other were perpendicular to the drive alley and the other two branches were opposite each other and parallel to the drive alley.

[4] = system: 'Bisbee Spur Delicious' on MM.111 apple trees; assay: Apple blossom thinning with eugenol and ATS, 2004; assay type: in vivo, Malus domestica; conditions: for Average fruit weight (g) / Total yield per tree (no.) / Flower burn back (% of flowers injured): Apple 'Bisbee'; for Average fruit weight (g) / Total yield per tree (no.) / Effect on yield: 2004; for Flower burn back (% of flowers injured): April 2004; for Effect on yield: Apple
Protocol: Each tree was an experimental unit, surrounded by buffer trees, with 4 single tree replications arranged in a completely randomized design.
Four branches per tree, each with 25 flowers, were measured; two branches opposite each other were perpendicular to the drive alley and the other two branches were opposite each other and parallel to the drive alley.

[5] = system: 'Gala' on M.26 apple trees; assay type: in vivo, Malus domestica; conditions: for Fruit (no./tree) / Fruit weight (kg/tree) / Individual fruit weight: Apple 'Gala'
Protocol: On Apr. […] Treatments were arranged in 4-tree plots and there were 4 blocks containing all 8 treatments. Data was collected from 2 trees per plot, so each treatment was an average of 8 trees. Data was analyzed by analysis of variance and Duncan's Multiple Range Test.

With C=CCc1ccc(O)c(OC)c1 [Eugenol, 2-methoxy-4-(2-propenyl)phenol] the “Concentration at which flower injury was apparent” value ([1]; Peach flowers, 2003) was 1.5%, the “Fruit (1 to 2 cm in diameter) one month after application” value (from here on “Fruit (1 to 2 cm in diameter) one month”) ([1]; Peach, 0.5% active ingredient) was 64% and the “Fruit (2 to 4 cm in diameter) two months after application” value (“Fruit (2 to 4 cm in diameter) two months” for short) ([1]; Peach, 0.5% active ingredient) was 40%. For the same molecule, the “Flowers without wilted pistils and stamens 24 hr after application” value ([1]; Peach, 0.5% active ingredient) was 100%, the “Fruit (1 to 2 cm in diameter) one month” value ([1]; Peach, 1% active ingredient) was 28% and the “Fruit (2 to 4 cm in diameter) two months” value ([1]; Peach, 1% active ingredient) was 16%. The “Flowers without wilted pistils and stamens 24 hr after application” value ([1]; Peach, 1% active ingredient) was 100%, the “Fruit (1 to 2 cm in diameter) one month” value ([1]; Peach, 1.5% active ingredient) was 36% and the “Fruit (2 to 4 cm in diameter) two months” value ([1]; Peach, 1.5% active ingredient) was 16%. The “Flowers without wilted pistils and stamens 24 hr after application” value ([1]; Peach, 1.5% active ingredient) was 95%, the “Fruit (1 to 2 cm in diameter) one month” value ([1]; Peach, 2% active ingredient) was 20% and the “Fruit (2 to 4 cm in diameter) two months” value ([1]; Peach, 2% active ingredient) was 6%. For the same molecule, the “Flowers without wilted pistils and stamens 24 hr after application” value ([1]; Peach, 2% active ingredient) was 85%, the “Fruit (1 to 2 cm in diameter) one month” value ([1]; Peach, 4% active ingredient) was 20% and the “Fruit (2 to 4 cm in diameter) two months” value ([1]; Peach, 4% active ingredient) was 5%. For the same molecule, the “Flowers without wilted pistils and stamens 24 hr after application” value ([1]; Peach, 4% active ingredient) was 62%, the “Fruit (1 to 2 cm in diameter) one month” value ([1]; Peach, 6% active ingredient) was 22% and the “Fruit (2 to 4 cm in diameter) two months” value ([1]; Peach, 6% active ingredient) was 5%. For the same molecule, the “Flowers without wilted pistils and stamens 24 hr after application” value ([1]; Peach, 6% active ingredient) was 50%, the “Fruit (1 to 2 cm in diameter) one month” value ([1]; Peach, 8% active ingredient) was 17% and the “Fruit (2 to 4 cm in diameter) two months” value ([1]; Peach, 8% active ingredient) was 3%. For the same molecule, the “Flowers without wilted pistils and stamens 24 hr after application” value ([1]; Peach, 8% active ingredient) was 39%, the “Fruit (1 to 2 cm in diameter) one month” value ([1]; Peach, 10% active ingredient) was 0% and the “Fruit (2 to 4 cm in diameter) two months” value ([1]; Peach, 10% active ingredient) was 5%. For the same molecule, the “Flowers without wilted pistils and stamens 24 hr after application” value ([1]; Peach, 10% active ingredient) was 31%, the “Time after application until peach flowers began to appear bleached and leaf tips developed necrotic lesions” value ([1]; Peach, 2003) was ≤ 1 h and the “Fruit or leaf injury” value ([1]; in vivo) was “No fruit or leaf injury”. The “Phytotoxicity by 2 months after application” value ([1]; in vivo) was “no sign of eugenol-induced phytotoxicity”, the “Concentration at which flower injury was apparent” value ([2]; Apple flowers, 2003) was 1.5% and the “Flowers without wilted pistils and stamens 24 hr after application” value ([2]; 0.5% active ingredient) was 100%. For the same molecule, the “Fruit (1 to 2 cm in diameter) one month” value ([2]; 0.5% active ingredient) was 18%, the “Fruit (2 to 4 cm in diameter) two months” value ([2]; 0.5% active ingredient) was 16% and the “Flowers without wilted pistils and stamens 24 hr after application” value ([2]; 1% active ingredient) was 100%. The “Fruit (1 to 2 cm in diameter) one month” value ([2]; 1% active ingredient) was 9%, the “Fruit (2 to 4 cm in diameter) two months” value ([2]; 1% active ingredient) was 17% and the “Flowers without wilted pistils and stamens 24 hr after application” value ([2]; 1.5% active ingredient) was 93%. For the same molecule, the “Fruit (1 to 2 cm in diameter) one month” value ([2]; 1.5% active ingredient) was 10%, the “Fruit (2 to 4 cm in diameter) two months” value ([2]; 1.5% active ingredient) was 12% and the “Flowers without wilted pistils and stamens 24 hr after application” value ([2]; 2% active ingredient) was 93%. The “Fruit (1 to 2 cm in diameter) one month” value ([2]; 2% active ingredient) was 10%, the “Fruit (2 to 4 cm in diameter) two months” value ([2]; 2% active ingredient) was 10% and the “Flowers without wilted pistils and stamens 24 hr after application” value ([2]; 4% active ingredient) was 68%. The “Fruit (1 to 2 cm in diameter) one month” value ([2]; 4% active ingredient) was 8%, the “Fruit (2 to 4 cm in diameter) two months” value ([2]; 4% active ingredient) was 6% and the “Flowers without wilted pistils and stamens 24 hr after application” value ([2]; 6% active ingredient) was 43%. For the same molecule, the “Fruit (1 to 2 cm in diameter) one month” value ([2]; 6% active ingredient) was 1%, the “Fruit (2 to 4 cm in diameter) two months” value ([2]; 6% active ingredient) was 2% and the “Flowers without wilted pistils and stamens 24 hr after application” value ([2]; 8% active ingredient) was 32%. The “Fruit (1 to 2 cm in diameter) one month” value ([2]; 8% active ingredient) was 2%, the “Fruit (2 to 4 cm in diameter) two months” value ([2]; 8% active ingredient) was 2% and the “Flowers without wilted pistils and stamens 24 hr after application” value ([2]; 10% active ingredient) was 27%. For the same molecule, the “Fruit (1 to 2 cm in diameter) one month” value ([2]; 10% active ingredient) was 1%, the “Fruit (2 to 4 cm in diameter) two months” value ([2]; 10% active ingredient) was 0% and the “Fruit or leaf injury” value ([2]; in vivo) was “no fruit or leaf injury”. The “Phytotoxicity by 2 months after application” value ([2]; in vivo) was “no sign of eugenol-induced phytotoxicity”, the “Rates at which fruit number was reduced” value [3]; 2004 was “higher than 2%” and the “Average fruit weight (g)” value ([3]; rate 1%, 2004) was 76 cde g. For the same molecule, the “Total yield per tree (no.)” value ([3]; rate 1%, 2004) was 684 a no, the “Flower burn back (% of flowers injured)” value ([3]; rate 1%, April 2004) was 15 b^a % and the “Average fruit weight (g)” value ([3]; rate 2%, 2004) was 87 bcde g. The “Total yield per tree (no.)” value ([3]; rate 2%, 2004) was 384 bc no, the “Flower burn back (% of flowers injured)” value ([3]; rate 2%, April 2004) was 27 ab % and the “Flower burn back (% of flowers injured)” value ([3]; rate 2%, April 2004, listed as eugenol) was 27%. The “Average fruit weight (g)” value ([3]; rate 4%, 2004) was 103 abc g, the “Total yield per tree (no.)” value ([3]; rate 4%, 2004) was 470 abc no and the “Flower burn back (% of flowers injured)” value ([3]; rate 4%, April 2004) was 39 ab %. For the same molecule, the “Flower burn back (% of flowers injured)” value ([3]; rate 4%, April 2004, listed as eugenol) was 49%, the “Average fruit weight (g)” value ([3]; rate 8%, 2004) was 112 ab g and the “Total yield per tree (no.)” value ([3]; rate 8%, 2004) was 404 bc no. The “Flower burn back (% of flowers injured)” value ([3]; rate 8%, April 2004) was 49 a %, the “Flower burn back (% of flowers injured)” value ([3]; rate 8%, April 2004, listed as eugenol) was “approximately 50%” and the “Average fruit weight (g)” value ([4]; rate 2%) was 152 a g. For the same molecule, the “Total yield per tree (no.)” value ([4]; rate 2%) was 543 a no, the “Flower burn back (% of flowers injured)” value ([4]; rate 2%) was 45 a % and the “Average fruit weight (g)” value ([4]; rate 4%) was 155 a g. The “Total yield per tree (no.)” value ([4]; rate 4%) was 462 a no, the “Flower burn back (% of flowers injured)” value ([4]; rate 4%) was 50 a % and the “Average fruit weight (g)” value ([4]; rate 6%) was 167 a g. The “Total yield per tree (no.)” value ([4]; rate 6%) was 443 a no, the “Flower burn back (% of flowers injured)” value ([4]; rate 6%) was 53 a % and the Effect on yield [4] was “did not affect yield”. The “Fruit (no./tree)” value ([5]; thinner applied at 4%, 2005) was 137 no./tree, the “Fruit weight (kg/tree)” value ([5]; thinner applied at 4%, 2005) was 20.5 kg/tree and the “Individual fruit weight” value ([5]; thinner applied at 4%, 2005) was 148 g. For the same molecule, the “Fruit (no./tree)” value ([5]; thinner applied at 6%, 2005) was 86 no./tree, the “Fruit weight (kg/tree)” value ([5]; thinner applied at 6%, 2005) was 10.2 kg/tree and the “Individual fruit weight” value ([5]; thinner applied at 6%, 2005) was 129 g. For the same molecule, the Leaf injury ([5]; in vivo) was “injury was superficial, did not persist, and was not observed within four weeks of application”.
With “ammonium thiosulfate [ATS, reference compound]” the “Fruit number per peach tree compared with control” value [3]; 2004 was “reduced”, the “Average fruit weight (g)” value ([3]; applied at 5.25 gal/A, 2004) was 125 a g and the “Total yield per tree (no.)” value ([3]; applied at 5.25 gal/A, 2004) was 345 c no. For the same molecule, the “Average fruit weight (g)” value ([4]; applied at 3.5 gal/A) was 153 a g, the “Total yield per tree (no.)” value ([4]; applied at 3.5 gal/A) was 570 a no and the “Flower burn back (% of flowers injured)” value ([4]; applied at 3.5 gal/A) was 50 a %. The Effect on yield [4] was “did not affect yield”, the “Fruit (no./tree)” value ([5]; thinner applied at 2%, 2005) was 789 no./tree and the “Fruit weight (kg/tree)” value ([5]; thinner applied at 2%, 2005) was 83.3 kg/tree. The “Individual fruit weight” value ([5]; thinner applied at 2%, 2005) was 109 g, the “Fruit (no./tree)” value ([5]; thinner applied at 4%, 2005) was 706 no./tree and the “Fruit weight (kg/tree)” value ([5]; thinner applied at 4%, 2005) was 79.8 kg/tree. For the same molecule, the “Individual fruit weight” value ([5]; thinner applied at 4%, 2005) was 120 g and the Performance as thinner ([5]; Apple, 2005) was “not a good thinner”.
